Molecular target: T1, NPY Y2 receptor (Homo sapiens, UniProt P49146)
T1 construct: endogenous in cells; host or cells: KAN-Ts cells (membrane preparation)
T1 sequence (P49146 1-381): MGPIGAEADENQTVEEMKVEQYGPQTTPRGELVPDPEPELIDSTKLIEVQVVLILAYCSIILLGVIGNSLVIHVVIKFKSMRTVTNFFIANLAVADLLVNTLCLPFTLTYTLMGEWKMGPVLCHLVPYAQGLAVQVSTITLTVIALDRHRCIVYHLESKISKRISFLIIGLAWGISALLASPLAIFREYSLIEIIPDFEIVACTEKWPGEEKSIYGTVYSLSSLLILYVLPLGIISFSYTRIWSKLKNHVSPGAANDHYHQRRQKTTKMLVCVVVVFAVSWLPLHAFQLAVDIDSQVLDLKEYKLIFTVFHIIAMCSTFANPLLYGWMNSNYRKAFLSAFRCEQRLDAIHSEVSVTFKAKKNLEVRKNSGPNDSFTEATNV
Assay: Neuropeptide Y2 radioligand binding assay ([125I]PYY, KAN-Ts cell membranes)
Conditions: membranes of KAN-Ts cells endogenously expressing Y2 receptors; [125I]PYY 80 pM; 1 h at rt; read-out: IC50 (μM), NPY Y2 binding
Description: KAN-Ts endogenously expressing Y2 receptors were used for the radioligand binding assay. Cells were grown to confluence on 150 cm^2 tissue culture plates, washed with phosphate-buffered saline (PBS), and scraped into 50 mL tubes. After centrifugation, the supernatant was aspirated, and the pellets frozen and stored at −80° C. Thawed pellets were homogenized with a polytron tissue grinder for 15 sec in 20 mM Tris-HCl, 5 mM EDTA. The homogenate was centrifuged at 800×g for 5 min and the collected supernatant was recentrifuged at 25000×g for 25 min. The resulting pellet was resuspended in binding buffer (20 mM HEPES, 120 mM NaCl, 0.22 mM KH2PO4, 1.3 mM CaCl2, 0.8 mM MgSO4). Membranes were incubated with [^125I]PYY (80 pM) in the presence or absence of test compound for 1 h at rt. The reaction was stopped by filtration through GF/C filter plates pre-soaked in 0.3% polyethylenimine and subsequently washed with Tris 50 mM, 5 mM EDTA buffer. Plates were dried for 1 h in a 55° C. oven, scintillation fluid was added and the radioactivity was counted in a Packard TopCount. Specific binding to the NPY receptor subtypes was determined by radioactivity that was bound in the presence of […] NPY. Each binding experiment was repeated three to eight times, each in duplicate. IC50 values (i.e. concentration of unlabelled peptide or antagonist required to compete for 50% of specific binding to the radioligand) were determined using the GraphPad Prism software (GraphPad Software Inc., San Diego Calif.) with a fit to a sigmoidal dose response curve. Apparent K values were as K=IC50/(1+C/KD), where C is concentration of the radioligand.

| IC50 [µM] | SMILES |
| --- | --- |
| 0.075 | CCc1noc(-c2ccc(N3CCN(C(C(=O)N(C)CC)c4ccccc4)CC3)c(F)c2)n1 (centres unmarked) [Compound 197, N-Ethyl-2-{4-[4-(3-ethyl-[1,2,4]oxadiazol-5-yl)-2-fluoro-phenyl]-piperazin-1-yl}-N-methyl-2-phenyl-acetamide] |
| 0.99 | CCN(CC)C(=O)C(c1ccccc1)N1CCN(c2ccc(-c3noc(/C(N)=N/O)n3)cc2F)CC1 (centres unmarked) [Compound 149, N,N-Diethyl-2-(4-{2-fluoro-4-[5-(N-hydroxycarbamimidoyl)-[1,2,4]oxadiazol-3-yl]-phenyl}-piperazin-1-yl)-2-phenyl-acetamide] |
| 0.49 | CCN(CC)C(=O)C(c1ccccc1OC)N1CCN(c2ccc(-c3nc(C)no3)cc2C#N)CC1 (centres unmarked) [Compound 251, 2-{4-[2-Cyano-4-(3-methyl-[1,2,4]oxadiazol-5-yl)-phenyl]-piperazin-1-yl}-N,N-diethyl-2-(2-methoxy-phenyl)-acetamide] |
| 0.48 | CCN(CC)C(=O)C(c1ccccc1)N1CCN(c2ccc(-c3cccc(C)c3)cc2F)CC1 (centres unmarked) [Compound 206] |
| 0.92 | CCN(CC)C(=O)C(c1ccccc1)N1CCN(c2ccc(-c3ccc(Cl)cc3)cc2F)CC1 (centres unmarked) [Compound 196, 2-[4-(4′-Chloro-3-fluoro-biphenyl-4-yl)-piperazin-1-yl]-N,N-diethyl-2-phenyl-acetamide] |
| 0.77 | CCN(CC)C(=O)C(c1ccccc1)N1CCN(c2ccc(-c3ccc(C)cc3)cc2F)CC1 (centres unmarked) [Compound 204, N,N-Diethyl-2-[4-(3-fluoro-4′-methyl-biphenyl-4-yl)-piperazin-1-yl]-2-phenyl-acetamide] |
| 0.98 | CCN(CC)C(=O)C(c1ccccc1)N1CCN(c2ccc(-c3nc(C(C)C)no3)cc2COC)CC1 (centres unmarked) [Compound 260, N,N-Diethyl-2-{4-[4-(3-isopropyl-[1,2,4]oxadiazol-5-yl)-2-methoxymethyl-phenyl]-piperazin-1-yl}-2-phenyl-acetamide] |
| 0.12 | CC(C)c1noc(-c2ccc(N3CCN(C(C(=O)N4CCCC4)c4ccccc4)CC3)c(F)c2)n1 (centres unmarked) [Compound 185, 2-{4-[2-Fluoro-4-(3-isopropyl-[1,2,4]oxadiazol-5-yl)-phenyl]-piperazin-1-yl}-2-phenyl-1-pyrrolidin-1-yl-ethanone] |
| > 10 | CCOC(=O)c1nc(-c2ccc(N3CCN(C(C(=O)N(CC)CC)c4ccccc4)CC3)c(F)c2)no1 (centres unmarked) [Compound 130, 3-{4-[4-(Diethylcarbamoyl-phenyl-methyl)-piperazin-1-yl]-3-fluoro-phenyl}-[1,2,4]oxadiazole-5-carboxylic acid ethyl ester] |
| 1.9 | CCN(CC)C(=O)C(c1ccccc1)N1CCN(c2ccc(-c3ccc(OC)cc3)cc2F)CC1 (centres unmarked) [Compound 205, N,N-Diethyl-2-[4-(3-fluoro-4′-methoxy-biphenyl-4-yl)-piperazin-1-yl]-2-phenyl-acetamide] |
| 0.096 | CCN(CC)C(=O)C(c1cccs1)N1CCN(c2ccc(-c3nc(C)no3)cc2C#N)CC1 (centres unmarked) [Compound 252, 2-{4-[2-Cyano-4-(3-methyl-[1,2,4]oxadiazol-5-yl)-phenyl]-piperazin-1-yl}-N,N-diethyl-2-thiophen-2-yl-acetamide] |

The next lines start with the compound.

| SMILES | IC50 [µM] |
| --- | --- |
| CCN(CC)C(=O)C(c1ccccc1)N1CCN(c2ccc(-c3cc(C)nn3-c3ccccc3)cc2F)CC1 (centres unmarked) [Compound 186, N,N-Diethyl-2-{4-[2-fluoro-4-(5-methyl-2-phenyl-2H-pyrazol-3-yl)-phenyl]-piperazin-1-yl}-2-phenyl-acetamide] | 0.11 |
| CCN(CC)C(=O)C(c1ccccc1)N1CCN(c2ccc(-c3noc(C(N)=O)n3)cc2F)CC1 (centres unmarked) [Compound 144, 3-{4-[4-(Diethylcarbamoyl-phenyl-methyl)-piperazin-1-yl]-3-fluorophenyl}-[1,2,4]oxadiazole-5-carboxylic acid amide] | 1.1 |
| CCN(CC)C(=O)C(c1ccccc1)N1CCN(c2ccc(-c3noc(C#N)n3)cc2F)CC1 (centres unmarked) [Compound 147, 2-{4-[4-(5-Cyano-[1,2,4]oxadiazol-3-yl)-2-fluoro-phenyl]-piperazin-1-yl}-N,N-diethyl-2-phenyl-acetamide] | 4.1 |
| CCN(CC)C(=O)C(c1ccc(F)cc1)N1CCN(c2ccc(-c3nc(C)no3)cc2F)CC1 (centres unmarked) [Compound 210, N,N-Diethyl-2-{4-[2-fluoro-4-(3-methyl-[1,2,4]oxadiazol-5-yl)-phenyl]-piperazin-1-yl}-2-(4-fluoro-phenyl)-acetamide] | 0.29 |
| CCN(CC)C(=O)C(c1ccccc1)N1CCN(c2ccc(-c3nnc(C)o3)cc2F)CC1 (centres unmarked) [Compound 150, N,N-Diethyl-2-{4-[2-fluoro-4-(5-methyl-[1,3,4]oxadiazol-2-yl)-phenyl]-piperazin-1-yl}-2-phenyl-acetamide] | 0.42 |
| CCc1noc(-c2ccc(N3CCN(C(C(=O)N(CC)CC)c4ccccc4)CC3)c(F)c2)n1 (centres unmarked) [Compound 71, N,N-Diethyl-2-{4-[4-(3-ethyl-[1,2,4]oxadiazol-5-yl)-2-fluoro-phenyl]-piperazin-1-yl}-2-phenyl-acetamide] | 0.097 |
| CCN(CC)C(=O)C(c1ccccc1)N1CCN(c2ccc(-c3ccc[nH]3)cc2F)CC1 (centres unmarked) [Compound 188, N,N-Diethyl-2-{4-[2-fluoro-4-(1H-pyrrol-2-yl)-phenyl]-piperazin-1-yl}-2-phenyl-acetamide] | 0.63 |
| CCN(CC)C(=O)C(c1ccccc1)N1CCN(c2ccc(-c3noc(CC(C)(C)C)n3)cc2F)CC1 (centres unmarked) [Compound 79, 2-(4-{4-[5-(2,2-Dimethyl-propyl)-[1,2,4]oxadiazol-3-yl]-2-fluoro-phenyl}-piperazin-1-yl)-N,N-diethyl-2-phenyl-acetamide] | 6.3 |
| CCN(CC)C(=O)C(c1ccccc1)N1CCN(c2ccc(-c3nc(C(C)C)no3)cc2CNC)CC1 (centres unmarked) [Compound 258, N,N-Diethyl-2-{4-[4-(3-isopropyl-[1,2,4]oxadiazol-5-yl)-2-methylaminomethyl-phenyl]-piperazin-1-yl}-2-phenyl-acetamide] | 1.8 |
| CCN(CC)C(=O)C(c1ccccc1)N1CCN(c2ccc(-c3cc(C)n[nH]3)cc2F)CC1 (centres unmarked) [Compound 200, N,N-Diethyl-2-{4-[2-fluoro-4-(5-methyl-2H-pyrazol-3-yl)-phenyl]-piperazin-1-yl}-2-phenyl-acetamide] | 0.81 |
| CCN(CC)C(=O)C(c1ccccc1)N1CCN(c2ccc(-c3nc(C(C)C)n(C)n3)cc2F)CC1 (centres unmarked) [Compound 216, N,N-Diethyl-2-{4-[2-fluoro-4-(5-isopropyl-1-methyl-1H-[1,2,4]triazol-3-yl)-phenyl]-piperazin-1-yl}-2-phenyl-acetamide] | 1.95 |
| CCc1cnc(-c2ccc(N3CCN(C(C(=O)N(CC)CC)c4ccccc4)CC3)c(F)c2)o1 (centres unmarked) [Compound 133, N,N-Diethyl-2-{4-[4-(5-ethyl-oxazol-2-yl)-2-fluoro-phenyl]-piperazin-1-yl}-2-phenyl-acetamide] | 0.46 |
| CCOC(=O)C(c1ccccc1)N1CCN(c2ccc(-c3nc(C)no3)cc2F)CC1 (centres unmarked) [Compound 192, {4-[2-Fluoro-4-(3-methyl-[1,2,4]oxadiazol-5-yl)-phenyl]-piperazin-1-yl}-phenyl-acetic acid ethyl ester] | 0.38 |
| CCN(CC)C(=O)C(c1ccccc1)N1CCN(c2ccc(-c3nc(C(C)C)no3)cc2C=O)CC1 (centres unmarked) [Compound 256, N,N-Diethyl-2-{4-[2-formyl-4-(3-isopropyl-[1,2,4]oxadiazol-5-yl)-phenyl]-piperazin-1-yl}-2-phenyl-acetamide] | 0.17 |
| CCN(CC)C(=O)C(c1ccccc1)N1CCN(c2ccc(-c3ccccc3OC)cc2F)CC1 (centres unmarked) [Compound 214, N,N-Diethyl-2-[4-(3-fluoro-2′-methoxy-biphenyl-4-yl)-piperazin-1-yl]-2-phenyl-acetamide] | 0.078 |
| CCN(CC)C(=O)C(c1ccccc1)N1CCN(c2ccc(-c3cnn(C)c3)cc2F)CC1 (centres unmarked) [Compound 195, N,N-Diethyl-2-{4-[2-fluoro-4-(1-methyl-1H-pyrazol-4-yl)-phenyl]-piperazin-1-yl}-2-phenyl-acetamide] | 0.9 |
| CCN(C)C(=O)C(c1ccccc1)N1CCN(c2ccc(-c3nc(C(C)C)no3)cc2F)CC1 (centres unmarked) [Compound 184, N-Ethyl-2-{4-[2-fluoro-4-(3-isopropyl-[1,2,4]oxadiazol-5-yl)-phenyl]-piperazin-1-yl}-N-methyl-2-phenyl-acetamide] | 2.2 |
| CCN(CC)C(=O)C(c1ccccc1)N1CCN(c2ccc(-c3ccccc3C#N)cc2F)CC1 (centres unmarked) [Compound 253, 2-[4-(2′-Cyano-3-fluoro-biphenyl-4-yl)-piperazin-1-yl]-N,N-diethyl-2-phenyl-acetamide] | 8.3 |
